Assay results taken from patent US20130337051A1, “ADVANCED ACTIVE LIPOSOMAL LOADING OF POORLY WATER-SOLUBLE SUBSTANCES” (priority 2011, published 2013).
Converted amounts (≈) assume the structure as drawn.

Legend:
physchem = format: physicochemical
Method: A chemical molecule (compound B) is presented with a low molecular weight. […] The solubility is increased up to 8 mg/ml in PEG200.
A calpain inhibitor (PD 150606) is presented, having a low molecular weight of 306 Da. […] The solubility is increased up to 8 mg/ml in PEG200.

[1] = Active loading of pre-formed liposomes (encapsulation efficiency, final product); format: physicochemical; conditions: solubilized in pure PEG200 and HPβCD; same pre-formed liposomes (calcium acetate)
Method: Liposomes may consist of different phospholipids and cholesterol in several molar ratios in order to modify the transition/processing temperature and particle stability in plasma. […] Components are dissolved in ethanol or iso-propanol. Additionally, for the purpose of increasing the (in vivo) particle stability and enhanced brain delivery, micelles consisting of DSPE-PEG-GSH (up to 5 mol %), which is synthesized before preparation of the liposomes using DSPE-PEG-MAL and fresh solutions of reduced glutathione, and/or DSPE-mPEG (Mw 2000) may be added to the solution at different mol-percentages (up to 5-10 mol % in total). The (lipid) mixture is injected in aqueous solutions containing active loading buffer of different ionic strengths (1-1000 mM), e.g. 2 mg/mL ammonium sulfate or 1 mg/mL calcium acetate. After stirring, the formed vesicles are either extruded through membranes or homogenized in an emulsifier to create liposomes of a uniform size. Alternatively, DSPE-PEG-GSH or DSPE-mPEG is added after preparation of the liposomes by incubation at 25° C. up to 60° C. for 2 up to 24 hours (depending on the phase transition temperature of the lipid mixture and the temperature sensitivity of the agent). […]
The compound is measured with UV at 295 nm at concentrations between 5-60 μg/ml. […]

[2] = pH 7, aqueous with cosolvent or surfactant or cyclodextrin

solubility (physchem; 20 °C) [µg/mL]	solubility (physchem; aqueous with cosolvent or surfactant or cyclodextrin) [µg/mL]	solubility (physchem; [2]) [µg/mL]	solubility in PEG200 (physchem)	solubility in water (physchem)	stability at basic pH (physchem)	active loading into pre-formed liposomes [1]	solubility (physchem; pH 5, aqueous buffer) [µg/mL]	solubility (physchem; pH 6, aqueous buffer) [µg/mL]	solubility (physchem; pH 7, aqueous buffer) [µg/mL]	solubility (physchem; pH 8, aqueous buffer) [µg/mL]	SMILES
< 100	2200 (≈ 4890 µM)	≥ 5000									C[C@@H](Oc1cc(-c2cnn(C3CCNCC3)c2)cnc1N)c1c(Cl)ccc(F)c1Cl [Crizotinib]
			up to 8 mg/ml	below 0.05 mg/ml	decomposes	no active loading					O=C(O)/C(S)=C/c1ccc(I)cc1 [PD 150606]
		≤ 2200					3 (≈ 18 µM)	20 (≈ 120 µM)	350 (≈ 2090 µM)	900 (≈ 5390 µM)	O=C(O)c1cccnc1C(=O)O [quinolinic acid]
